From US11738065B2, “Polypeptides and analogues thereof for use in the treatment of diabetes and bone disorders” (UNIVERSITY OF ULSTER, priority 2015, dated 2023)
Where a SMILES comes first, the peptide text is derived from it. [ ]: non-standard residue; d: D form.

Tests used:
purified porcine DPP-4 = target: T1, purified porcine DPP-4 (Sus scrofa, UniProt P22411); assay: DPP-4 degradation / in vitro DPP-4 half-life; format: in vitro ADME; settings: incubated in the presence of DPP-4 for up to 12 hs
T1 construct: purchased Sigma-Aldrich, Dorset, UK
Procedure: (§1) For calculation of experimental molecular masses, peptide samples (1 μg) were mixed with α-cyano-4-hydroxycinnamic acid (1 μg) and applied to a Voyager-DE BioSpectrometry Workstation and mass-to-charge (m/z) ratio verses peak intensity recorded by MALDI-TOF mass spectrometry. […] Degradation profiles were obtained using rp-HPLC analysis and HPLC peak area data used to calculate percentage intact peptide remaining at each time point.
(§2) Briefly, polypeptides (20 μg) were incubated with 5 μl of purified DPP-4 (5 mU, Sigma-Aldrich, Dorset, UK) in 50 mM TEA-HCl (pH 7.8; final volume 450 μl) at 37° C. for 0, 1, 4 and 12 hours. Enzymatic reactions were terminated by the addition of 50 μl TFA/H2O (10% v/v, Sigma-Aldrich, Dorset, UK). Reaction products were then separated by HPLC and analysed using MALDI-TOF.

DPP-4 = target: T2, DPP-4 (Sus scrofa, UniProt P22411); assay: DPP-4 degradation / in vitro DPP-4 half-life; format: in vitro ADME, porcine; settings: pig; 37° C., 50 mmol/L TEA-HCl pH 7.8, 5 mU purified porcine DPP-4, 0-12 h
T2 construct: purchased Sigma-Aldrich, Dorset, UK
Procedure: as §1, §2

BRIN-BD11 cells = assay: In vitro insulin secretion from BRIN-BD11 cells; format: cell-based; settings: 20 min; for Insulin secretion from BRIN-BD11 cells: 10^−6 mol/l peptide, vs 5.6 and 16.7 mmol/l glucose control
Procedure: BRIN-BD11 cells were used to assess the insulin releasing activity of polypeptides as described by […] et al., 1996 (Diabetes. 1996 August; 45(8):1132-40). Cells were cultured in RPMI-1640 growth media supplemented with 10% (v/v) foetal bovine serum (FBS) and 1% (v/v) antibiotics (penicillin (100 U/ml), streptomycin ([…])), in 75 cm2 sterile tissue culture flasks (Greiner bio-one, UK) maintained at 37° C. and 5% CO2 in a LEEC incubator (Laboratory technical engineering, Nottingham, UK). BRIN-BD11 cells were then seeded at a density of 150,000 cells/well in 24-well plates (Nunc, Roskilde, Denmark) and allowed to attach overnight at 37° C.

lean control mice [1] = assay: Acute and persistent glucose lowering and insulin releasing effects in lean control mice; format: in vivo
Procedure: All animal experiments were carried out in accordance with the UK Animals (Scientific Procedures) Act 1986. For food intake studies, fasted (18 h) mice were given intraperitoneal (i.p) injections of polypeptides at a dose of 25, 100 or 250 nmol/kg bw. Mice were then allowed free access to normal chow for 180 mins and cumulative food intake measured. […] Blood samples were collected from the cut tip on the tail vein of conscious mice into chilled fluoride/heparin glucose micro-centrifuge tubes (Sarstedt, Numbrecht, Germany) at the time points indicated in the Drawings. Blood glucose was measured directly using a hand-held Ascencia Contour blood glucose meter (Bayer Healthcare, Newbury, Berkshire, UK).

lean control mice [2] = assay: Acute food intake in lean control mice; format: in vivo; settings: 250 nmol/kg i.p.
Procedure: Acute animal studies were conducted in male NIH Swiss mice (12-14 weeks old, Harlan Ltd, UK) maintained on a standard rodent maintenance diet (10% fat, 30% protein and 60% carbohydrate, Trouw Nutrition, Cheshire, UK). […] All animals were housed individually in an air-conditioned room at 22±2° C. with a 12 h light:12 h dark cycle and had free access to food and water. All animal experiments were carried out in accordance with the UK Animals (Scientific Procedures) Act 1986.

T2 sequence (P22411 whole entry): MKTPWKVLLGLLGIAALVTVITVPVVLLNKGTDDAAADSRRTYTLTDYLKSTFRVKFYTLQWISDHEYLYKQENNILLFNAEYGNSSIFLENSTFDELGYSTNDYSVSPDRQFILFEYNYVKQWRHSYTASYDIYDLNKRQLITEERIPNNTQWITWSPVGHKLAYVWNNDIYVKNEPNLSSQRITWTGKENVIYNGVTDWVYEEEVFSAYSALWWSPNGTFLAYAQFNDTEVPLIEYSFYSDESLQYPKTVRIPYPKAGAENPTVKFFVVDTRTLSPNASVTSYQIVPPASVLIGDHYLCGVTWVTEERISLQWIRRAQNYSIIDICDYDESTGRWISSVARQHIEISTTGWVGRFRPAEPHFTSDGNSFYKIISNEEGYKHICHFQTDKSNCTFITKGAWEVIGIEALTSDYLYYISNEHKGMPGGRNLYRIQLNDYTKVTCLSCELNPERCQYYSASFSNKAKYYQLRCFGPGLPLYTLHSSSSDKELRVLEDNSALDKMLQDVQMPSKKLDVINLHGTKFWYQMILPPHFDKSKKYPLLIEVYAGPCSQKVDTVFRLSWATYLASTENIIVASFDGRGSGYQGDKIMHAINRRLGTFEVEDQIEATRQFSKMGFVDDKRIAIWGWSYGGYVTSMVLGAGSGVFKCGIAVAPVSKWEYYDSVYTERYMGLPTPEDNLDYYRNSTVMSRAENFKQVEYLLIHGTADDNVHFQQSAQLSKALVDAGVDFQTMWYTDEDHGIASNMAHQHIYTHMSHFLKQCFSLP
T1 sequence (P22411 whole entry): as above

Q: Which “Intactness on incubation with DPP-4” value (purified porcine DPP-4) does the source give for `CC[C@H](C)[C@H](NC(=O)[C@H](CO)NC(=O)[C@H](Cc1ccc(O)cc1)NC(=O)[C@H](CC(=O)O)NC(=O)[C@H](CO)NC(=O)[C@@H](NC(=O)[C@H](Cc1ccccc1)NC(=O)[C@@H](NC(=O)CNC(=O)[C@H](CCC(=O)O)NC(=O)[C@@H](C)NC(=O)[C@@H](N)Cc1ccc(O)cc1)[C@@H](C)O)[C@@H](C)CC)C(=O)N[C@@H](C)C(=O)N[C@@H](CCSC)C(=O)N[C@@H](Cc1c[nH]cn1)C(=O)N1CCC[C@H]1C(=O)N[C@@H](CCC(N)=O)C(=O)N[C@@H](CCC(N)=O)C(=O)N1CCC[C@H]1C(=O)N[C@@H](Cc1c[nH]c2ccccc12)C(=O)N[C@H](C(=O)N[C@@H](CC(C)C)C(=O)O)[C@@H](C)CC` [(DAla2)GIP/xenin-8-Gln, TYR-(d)ALA-GLU-GLY-THR-PHE-ILE-SER-ASP-TYR-SER-ILE-ALA-MET-HIS-PRO-GLN-GLN-PRO-TRP-ILE-LEU] (H-Y[dA]EGTFISDYSIAMHPQQPWIL-OH; N-terminus and C-terminus assumed) here?
A: The value was “remained fully intact”.

Q: What about the half-life at 44.4 µg/mL (DPP-4) of the same compound?
A: Its half-life at 44.4 µg/mL is greater than 12 h.

Q: `CC[C@H](C)[C@H](NC(=O)[C@H](CO)NC(=O)[C@H](Cc1ccc(O)cc1)NC(=O)[C@H](CC(=O)O)NC(=O)[C@H](CO)NC(=O)[C@@H](NC(=O)[C@H](Cc1ccccc1)NC(=O)[C@@H](NC(=O)CNC(=O)[C@H](CCC(=O)O)NC(=O)[C@H](C)NC(=O)[C@@H](N)Cc1ccc(O)cc1)[C@@H](C)O)[C@@H](C)CC)C(=O)N[C@@H](C)C(=O)N[C@@H](CCSC)C(=O)N[C@@H](CC(=O)O)C(=O)N[C@@H](CCCCN)C(=O)N[C@H](C(=O)N[C@@H](Cc1c[nH]cn1)C(=O)N[C@@H](CCC(N)=O)C(=O)N[C@@H](CCC(N)=O)C(=O)N[C@@H](CC(=O)O)C(=O)N[C@@H](Cc1ccccc1)C(=O)N[C@H](C(=O)N[C@@H](CC(N)=O)C(=O)N[C@@H](Cc1c[nH]c2ccccc12)C(=O)N[C@@H](CC(C)C)C(=O)N[C@@H](CC(C)C)C(=O)N[C@@H](C)C(=O)N[C@@H](CCC(N)=O)C(=O)N[C@@H](CCCCN)C(=O)NCC(=O)N[C@@H](CCCCN)C(=O)N[C@@H](CCCCN)C(=O)N[C@@H](CC(N)=O)C(=O)N[C@@H](CC(=O)O)C(=O)N[C@@H](Cc1c[nH]c2ccccc12)C(=O)N[C@@H](CCCCN)C(=O)N[C@@H](Cc1c[nH]cn1)C(=O)N[C@@H](CC(N)=O)C(=O)N[C@H](C(=O)N[C@H](C(=O)N[C@@H](CCC(N)=O)C(=O)O)[C@@H](C)O)[C@@H](C)CC)C(C)C)[C@@H](C)CC` [Native GIP, reference compound] was tested. Which half-life at 44.4 µg/mL (DPP-4) did it give?
A: Its half-life at 44.4 µg/mL is less than 1 h.

Q: What does the source list for “HIS-PRO-GLN-GLN-PRO-TRP-ILE-LEU (HPQQPWIL; listed as Homo sapiens) [xenin-8-Gln]”?
A: Insulin secretion from BRIN-BD11 cells (BRIN-BD11 cells): significantly (P<0.05 to P<0.001) stimulated insulin secretion; Glucose lowering or insulin releasing effects, peptide 4 h prior to glucose load (lean control mice [1]; 25 nmol/kg 4 h before glucose 18 mmol/kg): devoid of any beneficial glucose lowering or insulin releasing effects; Blood glucose at 30 min post injection (lean control mice [1]; 25 nmol/kg with glucose 18 mmol/kg i.p., non-fasted mice, vs glucose alone): significantly (P<0.05) lowered blood glucose values; Overall 0-105 min AUC blood glucose (lean control mice [1]; 25 nmol/kg with glucose 18 mmol/kg i.p., vs glucose alone): significantly (P<0.05) decreased; Cumulative food intake at 120 min post-injection (lean control mice [2]): significant (P<0.05) reductions in cumulative food intake

Q: Which “Insulin secretory effect in BRIN BD11 beta-cells of C-terminally modified peptide” value (BRIN-BD11 cells; 10^−12-10^−6 M, vs 5.6 mM glucose alone) does the source give for “HIS-PRO-GLN-GLN-PRO-TRP-ILE-LEU-GLY-ALA-ALA-GLU-GLU-GLU-GLU-GLU-GLU (HPQQPWILGAAEEEEEE; listed as Homo sapiens) [GIP(L-Glu)]” here?
A: The value was “does not hinder biological activity at the cellular level”.

Q: “HIS-PRO-LYS-ARG-PRO-TRP-ILE-LEU (HPKRPWIL; listed as Homo sapiens) [xenin-8, reference compound]” was tested. Which “Insulin secretion from BRIN-BD11 cells” value (BRIN-BD11 cells) did it give?
A: Its value is “significantly (P<0.05 to P<0.001) stimulated insulin secretion”.

Q: For “MET-LEU-THR-LYS-PHE-GLU-THR-LYS-SER-ALA-ARG-VAL-LYS-GLY-LEU-SER-PHE-HIS-PRO-LYS-ARG-PRO-TRP-ILE-LEU (MLTKFETKSARVKGLSFHPKRPWIL; listed as Homo sapiens) [xenin, reference compound]”, which “Insulin secretion from BRIN-BD11 cells” value (BRIN-BD11 cells) is on record?
A: The value was “significantly (P<0.05 to P<0.001) stimulated insulin secretion”.

Q: And the “Appetite suppressive effect at 90 min post-injection” value (lean control mice [2]; vs control)?
A: The value was “significantly (P<0.05) superior to control mice”.
